Test [1] concerns the target T1, RIPK1 kinase (Homo sapiens, UniProt Q13546).
T1 construct: purchased Promega VA7593
T1 sequence (Q13546 1-671): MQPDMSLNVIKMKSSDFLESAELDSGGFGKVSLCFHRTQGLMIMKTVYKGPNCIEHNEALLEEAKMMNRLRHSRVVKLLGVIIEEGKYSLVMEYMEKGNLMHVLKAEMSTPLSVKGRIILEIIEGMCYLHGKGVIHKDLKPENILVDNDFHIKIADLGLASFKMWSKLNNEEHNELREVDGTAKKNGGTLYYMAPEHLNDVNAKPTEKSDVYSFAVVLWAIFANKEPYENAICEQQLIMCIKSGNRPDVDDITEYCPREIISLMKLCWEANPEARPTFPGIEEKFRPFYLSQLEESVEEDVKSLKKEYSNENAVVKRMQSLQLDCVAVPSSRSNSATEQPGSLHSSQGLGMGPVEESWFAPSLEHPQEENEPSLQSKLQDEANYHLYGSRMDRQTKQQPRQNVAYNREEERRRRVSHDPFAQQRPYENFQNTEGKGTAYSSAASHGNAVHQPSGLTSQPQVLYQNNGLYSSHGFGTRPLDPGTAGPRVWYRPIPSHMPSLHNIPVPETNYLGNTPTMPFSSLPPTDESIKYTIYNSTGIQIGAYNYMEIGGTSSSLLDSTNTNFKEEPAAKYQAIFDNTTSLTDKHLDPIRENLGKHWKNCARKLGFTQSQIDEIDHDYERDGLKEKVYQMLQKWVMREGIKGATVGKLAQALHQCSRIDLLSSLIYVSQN
The test can be described thus: In vitro RIPK1 kinase activity assay (ADP-Glo), inhibition by compounds at 1 μM. In kind it is biochemical. Conditions: compound 1 μM; ATP 10 μM; MBP substrate 100 μg/mL; read-out: RIPK1 kinase activity inhibition rate range. In outline: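 Read by ADP-Glo chemiluminescence as percent inhibition: RIPK1 kinase, 15-min room-temperature compound preincubation, then 1-h reaction with MBP (100 μg/mL final) and ATP (10 μM final). Enzyme level was set by titration.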

For test [2], the target named is T1, RIPK1 kinase. The test can be described thus: In vitro RIPK1 kinase activity IC50 assay (ADP-Glo). Conditions: ATP 10 μM; MBP substrate 100 μg/mL; 8 concentration points; read-out: IC50 range of compounds for RIPK1 kinase activity. In kind it is biochemical. An outline of the steps:
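Human RIPK1 preincubated 15 min at room temperature with compound (8-point 1:5 dilution series, 1% DMSO in kinase buffer D). Reaction then ran 1 h with 10 μM ATP and 100 μg/mL MBP substrate; ADP measured by ADP-Glo luminescence, IC50 from four-parameter nonlinear fit.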
A general note: ADP-Glo first removes unused ATP, then detects ADP through luciferase.

The structures appear in SMILES notation. A value given as a limit tells only on which side of the number the result lay.

By inhibition is commonly meant the share of the control response that was lost under treatment. The IC50 is the concentration that gives 50% inhibition. Regarding `CN1C(=O)[C@@H](NC(=O)C(=O)NCCc2cccc(F)c2)COc2ccc(C#CCN3CCC(=O)CC3)cc21` [Example 118, (S)—N^1-(3-fluorophenethyl)-N^2-(5-methyl-4-oxo-7-(3-(4-oxopiperidin-1-yl)prop-1-yn-1-yl)-2,3,4,5-tetrahydrobenzo[b][1,4]oxazepin-3-yl)oxalamide], on RIPK1 kinase [1], the inhibition at 1 µM is at least 75%. In addition, the half-maximal inhibitory concentration (IC50) on RIPK1 kinase [2] is below 100 nM.
The matching figures for `CN1C(=O)[C@@H](NC(=O)C(=O)NCCc2cccc(F)c2)COc2ccc(C#CCN3CCOCC3)cc21` [Example 120, (S)—N^1-(3-fluorophenethyl)-N^2-(5-methyl-7-(3-morpholinoprop-1-yn-1-yl)-4-oxo-2,3,4,5-tetrahydrobenzo[b][1,4]oxazepin-3-yl)oxalamide]: at least 75% and below 100 nM.
`CN1C(=O)[C@@H](NC(=O)C(=O)NCCc2cccc(F)c2)COc2ccc(C#CCN3C(=O)CCC3=O)cc21` [Example 122, (S)—N^1-(7-(3-(2,5-dioxopyrrolidin-1-yl)prop-1-yn-1-yl)-5-methyl-4-oxo-2,3,4,5-tetrahydrobenzo[b][1,4]oxazepin-3-yl)-N^2-(3-fluorophenethyl)oxalamide]: the inhibition at 1 µM at RIPK1 kinase [1] is at least 75%. The IC50 on RIPK1 kinase [2] was below 100 nM.
Taken in the same sequence, the figures for `CN1C(=O)[C@@H](NC(=O)C(=O)NCCc2cccc(F)c2)COc2ccc(C#CCN3CCNC(=O)C3)cc21` [Example 123, (S)—N^1-(3-fluorophenethyl)-N^2-(5-methyl-4-oxo-7-(3-(3-oxopiperazin-1-yl)prop-1-yn-1-yl)-2,3,4,5-tetrahydrobenzo[b][1,4]oxazepin-3-yl)oxalamide] were 50 to 74% and below 100 nM.
For `C[C@@H](NC(=O)C(=O)N[C@H]1COc2ccc(C#CCN3CC[C@@H](O)C3)cc2N(C)C1=O)c1ccccc1` [Example 128, N^1-((S)-7-(3-((R)-3-hydroxypyrrolidin-1-yl)prop-1-yn-1-yl)-5-methyl-4-oxo-2,3,4,5-tetrahydrobenzo[b][1,4]oxazepin-3-yl)-N^2-((R)-1-phenylethyl)oxalamide], the inhibition at 1 µM on RIPK1 kinase [1] was at least 75%. Moreover, the IC50 at RIPK1 kinase [2] is below 100 nM.
With `C[C@@H](NC(=O)C(=O)N[C@H]1COc2ccc(C#CCN3CC[C@H](O)C3)cc2N(C)C1=O)c1ccccc1` [Example 130, N^1-((S)-7-(3-((S)-3-hydroxypyrrolidin-1-yl)prop-1-yn-1-yl)-5-methyl-4-oxo-2,3,4,5-tetrahydrobenzo[b][1,4]oxazepin-3-yl)-N^2-((R)-1-phenylethyl)oxalamide], the inhibition at 1 µM on RIPK1 kinase [1] was at least 75%. For the same compound, on RIPK1 kinase [2], the IC50 is below 100 nM.
Taken in the same sequence, the figures for `C[C@@H](NC(=O)C(=O)N[C@H]1COc2ccc(C#CC3(O)COC3)cc2N(C)C1=O)c1ccccc1` [Example 132, N^1-((S)-7-((3-hydroxyoxetan-3-yl)ethynyl)-5-methyl-4-oxo-2,3,4,5-tetrahydrobenzo[b][1,4]oxazepin-3-yl)-N^2-((R)-1-phenylethyl)oxalamide] were 50 to 74% and below 100 nM.
For `C[C@@H](NC(=O)C(=O)N[C@H]1COc2ccc(C#CC3CCN(CC#N)CC3)cc2N(C)C1=O)c1ccccc1` [Example 137, N^1-((S)-7-((1-(cyanomethyl)piperidin-4-yl)ethynyl)-5-methyl-4-oxo-2,3,4,5-tetrahydrobenzo[b][1, 4]oxazepin-3-yl)-N^2-((R)-1-phenylethyl)oxalamide], on RIPK1 kinase [1], the inhibition at 1 µM was at least 75%. For the same compound, the IC50 on RIPK1 kinase [2] is below 100 nM.
As for `C[C@@H](NC(=O)C(=O)N[C@H]1COc2ccc(C#CCN3CCC(O)CC3)cc2N(C)C1=O)c1ccccc1` [Example 138, N^1-((S)-7-(3-(4-hydroxypiperidin-1-yl)prop-1-yn-1-yl)-5-methyl-4-oxo-2,3,4,5-tetrahydrobenzo[b][1,4]oxazepin-3-yl)-N^2-((R)-1-phenylethyl)oxalamide], the inhibition at 1 µM at RIPK1 kinase [1] was at least 75%. The IC50 at RIPK1 kinase [2] is below 100 nM.
Taken in the same sequence, the figures for `C[C@@H](NC(=O)C(=O)N[C@H]1COc2ccc(C#CCN3CCC(=O)CC3)cc2N(C)C1=O)c1ccccc1` [Example 139, N^1-((S)-5-methyl-4-oxo-7-(3-(4-oxopiperidin-1-yl)prop-1-yn-1-yl)-2,3,4,5-tetrahydrobenzo[b][1, 4]oxazepin-3-yl)-N^2-((R)-1-phenylethyl)oxalamide] were at least 75% and below 100 nM.
For the compound `C[C@@H](NC(=O)C(=O)N[C@H]1COc2ccc(C#CCN3CCOCC3)cc2N(C)C1=O)c1ccccc1` [Example 140, N^1-((S)-5-methyl-7-(3-morpholinoprop-1-yn-1-yl)-4-oxo-2,3,4,5-tetrahydrobenzo[b][1,4]oxazepin-3-yl)-N^2-((R)-1-phenylethyl)oxalamide], the inhibition at 1 µM at RIPK1 kinase [1] is at least 75%. For the same compound, at RIPK1 kinase [2], the IC50 is below 100 nM.
For the compound `C[C@@H](NC(=O)C(=O)N[C@H]1COc2ccc(C#CCN3C(=O)CCC3=O)cc2N(C)C1=O)c1ccccc1` [Example 144, N^1-((S)-7-(3-(2,5-dioxopyrrolidin-1-yl)prop-1-yn-1-yl)-5-methyl-4-oxo-2,3,4,5-tetrahydrobenzo[b][1,4]oxazepin-3-yl)-N^2-((R)-1-phenylethyl)oxalamide], at RIPK1 kinase [1], the inhibition at 1 µM is at least 75%. For the same compound, the IC50 at RIPK1 kinase [2] was below 100 nM.
Taken in the same sequence, the figures for `C[C@@H](NC(=O)C(=O)N[C@H]1COc2ccc(C#CCN3CCNC(=O)C3)cc2N(C)C1=O)c1ccccc1` [Example 145, N^1-((S)-5-methyl-4-oxo-7-(3-(3-oxopiperazin-1-yl)prop-1-yn-1-yl)-2,3,4,5-tetrahydrobenzo[b][1, 4]oxazepin-3-yl)-N^2-((R)-1-phenylethyl)oxalamide] were at least 75% and below 100 nM.
Taken in the same sequence, the figures for `C[C@@H](NC(=O)C(=O)N[C@H]1COc2ccc(C#CCN(C)C)cc2N(C)C1=O)c1ccccc1` [Example 146, N^1-((S)-7-(3-(dimethylamino)prop-1-yn-1-yl)-5-methyl-4-oxo-2,3,4,5-tetrahydrobenzo[b][1,4]oxazepin-3-yl)-N^2-((R)-1-phenylethyl)oxalamide] were 50 to 74% and below 100 nM.
The matching figures for `C[C@@H](NC(=O)C(=O)N[C@H]1COc2ccc(C#CC3CN(CC#N)C3)cc2N(C)C1=O)c1ccccc1` [Example 148, N^1-((S)-7-((1-(cyanomethyl)azetidin-3-yl)ethynyl)-5-methyl-4-oxo-2,3,4,5-tetrahydrobenzo[b][1, 4]oxazepin-3-yl)-N^2-((R)-1-phenylethyl)oxalamide]: at least 75% and below 100 nM.
With `C[C@@H](CNC(=O)C(=O)N[C@H]1COc2ccc(C#CCCO)cc2N(C)C1=O)c1ccccc1` [Example 155, N^1-((S)-7-(4-hydroxybut-1-yn-1-yl)-5-methyl-4-oxo-2,3,4,5-tetrahydrobenzo[b][1,4]oxazepin-3-yl)-N^2-((R)-2-phenylpropyl)oxalamide], at RIPK1 kinase [1], the inhibition at 1 µM was at least 75%. For the same compound, on RIPK1 kinase [2], the IC50 is below 100 nM.
Taken in the same sequence, the figures for `C[C@H](CNC(=O)C(=O)N[C@H]1COc2ccc(C#CCCO)cc2N(C)C1=O)c1ccccc1` [Example 156, N^1-((S)-7-(4-hydroxybut-1-yn-1-yl)-5-methyl-4-oxo-2,3,4,5-tetrahydrobenzo[b][1,4]oxazepin-3-yl)-N^2-((S)-2-phenylpropyl)oxalamide] were 50 to 74% and below 100 nM.
Taken in the same sequence, the figures for `C[C@@H](CNC(=O)C(=O)N[C@H]1COc2ccc(C#CC3(O)COC3)cc2N(C)C1=O)c1ccccc1` [Example 158, N^1-((S)-7-((3-hydroxyoxetan-3-yl)ethynyl)-5-methyl-4-oxo-2,3,4,5-tetrahydrobenzo[b][1,4]oxazepin-3-yl)-N^2-((R)-2-phenylpropyl)oxalamide] were at least 75% and below 100 nM.
Taken in the same sequence, the figures for `C[C@@H](CNC(=O)C(=O)N[C@H]1COc2ccc(C#CCN3CCOCC3)cc2N(C)C1=O)c1ccccc1` [Example 159, N^1-((S)-5-methyl-7-(3-morpholinoprop-1-yn-1-yl)-4-oxo-2,3,4,5-tetrahydrobenzo[b][1,4]oxazepin-3-yl)-N^2-((R)-2-phenylpropyl)oxalamide] were at least 75% and below 100 nM.
For the compound `CN1C(=O)C(NC(=O)C(=O)NCCc2cccc(F)c2)CCc2ccc(C#CCCO)cc21` (stereo not shown) [Example 167, N^1-(3-fluorophenethyl)-N^2-(8-(4-hydroxybut-1-yn-1-yl)-1-methyl-2-oxo-2,3,4,5-tetrahydro-1H-benzo[b]azepin-3-yl)oxalamide], the inhibition at 1 µM at RIPK1 kinase [1] was at least 75%. The concentration for half-maximal inhibition (IC50) at RIPK1 kinase [2] is below 100 nM.

Values taken from patent publication US20250368633A1, “AZEPINE FUSED RING COMPOUND AS RIPK1 INHIBITOR AND USE THEREOF” (ARTIVILA BIOPHARMA, priority 2022, published 2025).
